We go through 18 molecules from patent publication US20240335431A1, “1-H-PYRROLO[2,3-c]PYRIDINE COMPOUNDS” (Acerta Pharma B.V., priority 2023, published 2024).

Where two headings read alike, the source gives them in different places.

The target in one data set is hERG (Homo sapiens (Human), UniProt Q12809). As to the kind of experiment: hERG assay 1 (standard), SyncroPatch 384PE. To be noted: CHO cells, room temperature, up to 40 uM. The class given is cell-based. The gist of the method: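 Automated patch clamp on hERG-expressing CHO-K1 cells at room temperature, +60/−40 mV protocol every 15 s. Six-point cumulative concentrations 139 nM to 40 uM (0.33% DMSO final); IC50 from one-site fit of % inhibition. Wells required ≥30 MegaOhm seal, current >0.2 nA, Z prime >0.4.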
Chain of hERG (Q12809 whole entry): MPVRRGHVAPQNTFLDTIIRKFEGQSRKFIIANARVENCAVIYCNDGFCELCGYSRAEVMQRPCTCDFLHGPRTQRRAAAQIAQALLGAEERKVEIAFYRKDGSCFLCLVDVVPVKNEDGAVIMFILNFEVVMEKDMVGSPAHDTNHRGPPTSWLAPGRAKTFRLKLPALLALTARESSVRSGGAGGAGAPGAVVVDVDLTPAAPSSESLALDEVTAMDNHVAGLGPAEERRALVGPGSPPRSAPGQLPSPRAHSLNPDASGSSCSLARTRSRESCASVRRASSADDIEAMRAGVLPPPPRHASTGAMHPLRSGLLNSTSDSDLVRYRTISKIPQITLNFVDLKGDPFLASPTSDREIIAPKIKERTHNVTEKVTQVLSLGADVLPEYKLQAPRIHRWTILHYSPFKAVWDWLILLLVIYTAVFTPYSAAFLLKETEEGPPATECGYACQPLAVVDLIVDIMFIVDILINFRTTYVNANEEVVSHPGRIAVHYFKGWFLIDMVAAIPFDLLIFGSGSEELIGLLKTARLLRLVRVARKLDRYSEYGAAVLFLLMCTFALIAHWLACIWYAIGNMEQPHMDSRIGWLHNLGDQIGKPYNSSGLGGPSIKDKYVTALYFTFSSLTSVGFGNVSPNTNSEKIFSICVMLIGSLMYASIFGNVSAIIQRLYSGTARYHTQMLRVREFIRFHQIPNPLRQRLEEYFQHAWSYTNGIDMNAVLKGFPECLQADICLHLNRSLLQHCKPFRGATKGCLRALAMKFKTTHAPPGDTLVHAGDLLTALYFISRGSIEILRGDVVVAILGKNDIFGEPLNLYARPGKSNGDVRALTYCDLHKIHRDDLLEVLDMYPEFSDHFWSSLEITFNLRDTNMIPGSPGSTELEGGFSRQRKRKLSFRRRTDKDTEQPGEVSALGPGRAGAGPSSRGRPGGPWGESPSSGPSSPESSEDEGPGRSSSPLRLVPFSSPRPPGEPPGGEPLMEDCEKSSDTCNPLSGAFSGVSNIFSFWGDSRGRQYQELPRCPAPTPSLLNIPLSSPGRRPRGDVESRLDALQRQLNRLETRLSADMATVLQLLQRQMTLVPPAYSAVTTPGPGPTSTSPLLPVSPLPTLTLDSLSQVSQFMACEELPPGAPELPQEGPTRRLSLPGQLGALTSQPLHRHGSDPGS

In another data set the test system is MOLM-13 cells. As to the kind of experiment: Proliferation assay, MOLM-13 (CellTiter-Glo, 7 days). The class given is cell-based, human. The gist of the method: (§1)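 Cells seeded at 125 (MOLM-13), 300 (MV4;11), 75 (OCI-AML3) or 200 (HEL) per well were exposed to 3.16-fold compound dilutions (0.1% DMSO) for 7 days at 37° C. Viability by CellTiter-Glo luminescence, normalized to DMSO (100%) and day-0 plate (0%); IC50 from one-site dose-response fit.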
Background: In ATP-based viability assays light output follows the ATP content of the culture.

In a further data set the test system is MV4;11 cells. The experiment in a line: Proliferation assay, MV4;11 (CellTiter-Glo, 7 days). It is filed as cell-based, human. To be noted: read-out: MV-4-11 IC50. The gist of the method: as §1
Data set [1] can be described thus: Human liver microsomes (HLMs) intrinsic clearance assay. To be noted: for microsomal CLint at 1 µM: pH 7.4, HLM CLint. It is filed as in vitro ADME. On the technique in general: Liver microsomes are vesicles of endoplasmic reticulum, rich in cytochrome P450 enzymes.
[2] abbreviates: human, microsomes, 1 µM, pH 7.4.

With `Cc1c(C(=O)[C@@H]2CCN(C(=O)[C@H]3NC[C@@H]4C[C@@H]43)[C@@H](C)C2)c2ccncc2n1-c1ccc(F)cc1C(=O)N(CC(F)(F)F)C(C)C` (single isomer, unassigned) [Example 53-3, 2-(3-((2R*,4S*)-1-((1S,2S,5R)-3-Azabicyclo[3.1.0]hexane-2-carbonyl)-2-methylpiperidine-4-carbonyl)-2-methyl-1H-pyrrolo[2,3-c]pyridin-1-yl)-5-fluoro-N-isopropyl-N-(2,2,2-trifluoroethyl)benzamide], the half-inhibitory concentration (IC50) came to 31.4 µM at hERG, 0.015 µM in the data set with MOLM-13 cells and 0.013 µM in the data set on MV4;11 cells. The “HLM CLint” value in data set [1] (setting [2]) turned out to be 155 µL/min/mg.
Take `Cc1c(C(=O)C2CCN(C(=O)[C@H]3NC[C@@H]4C[C@@H]43)CC2)c2ccncc2n1-c1ccc(F)cc1C(=O)N(C(C)C)C(C)C` (single isomer, unassigned) [Example 55-1]: the IC50 on hERG is greater than 40 µM; with MOLM-13 cells it was 1.26 µM; with MV4;11 cells it was 1.73 µM. Further, in data set [1] (human, microsomes), the microsomal CLint at 1 µM was found to be 125 µL/min/mg.
Consider `Cc1c(C(=O)C2CCN(C(=O)[C@H]3NC[C@@H]4C[C@@H]43)CC2)c2ccncc2n1-c1ccc(F)cc1C(=O)N(C(C)C)C(C)C` (single isomer, unassigned) [Example 55-2], for which the values for the IC50 at hERG, with MOLM-13 cells and with MV4;11 cells were greater than 40 µM, 0.025 µM and 0.031 µM, respectively. The “HLM CLint” value in data set [1] (setting [2]) is 194 µL/min/mg.
In the case of `Cc1c(C(=O)C2CCN(C(=O)[C@H]3NC[C@@H]4C[C@@H]43)CC2)c2ccncc2n1-c1ccc(F)cc1C(=O)N(C(C)C)[C@H](C)C(F)(F)F` (single isomer, unassigned) [Example 57-1], the IC50 against hERG is greater than 38.5 µM; in the data set on MOLM-13 cells it was 0.093 µM; in the data set on MV4;11 cells (Homo sapiens, MV4-11, 168 h), 0.051 µM. This molecule also returned a microsomal CLint at 1 µM in data set [1] (human, microsomes) of 84 µL/min/mg.
For `Cc1c(C(=O)C2CCN(C(=O)[C@@H]3CCC4(CC4)N3)CC2)c2ccncc2n1-c1ccc(F)cc1C(=O)N1[C@H](C)COC[C@H]1C` (single isomer, unassigned) [Example 58-2], the IC50 is greater than 40 µM against hERG; 0.037 µM in the data set on MOLM-13 cells; 0.035 µM in the data set with MV4;11 cells (Homo sapiens, MV4-11, 168 h). For the same molecule, the “HLM CLint” value in data set [1] (1 mg/mL HLM, NADPH) worked out at 85 µL/min/mg.
For the molecule `CC(C)N(C(=O)c1cc(F)ccc1-n1cc(C(=O)[C@H]2CCN(C[C@H]3CC[C@H](NS(C)(=O)=O)CC3)C2)c2ccncc21)C(C)C` [Example 1, 5-Fluoro-N,N-diisopropyl-2-(3-((S)-1-(((1r,4S)-4-(methylsulfonamido)-cyclohexyl)methyl)pyrrolidine-3-carbonyl)-1H-pyrrolo[2,3-c]pyridin-1-yl)benzamide], the IC50 was determined as 9.9 µM at hERG; 0.149 µM in the data set on MOLM-13 cells (Homo sapiens, MOLM-13, 168 h); 0.166 µM with MV4;11 cells (Homo sapiens, MV4-11, 168 h). The molecule also had a microsomal CLint at 1 µM in data set [1] (human, microsomes) of 178 µL/min/mg.
For `CC(C)N(C(=O)c1cc(F)ccc1-n1cc(C(=O)[C@H]2CCN(C(=O)[C@H]3N[C@@H]4CC[C@H]3C4)C2)c2ccncc21)C(C)C` [Example 2, 2-(3-((S)-1-((1R,3S,4S)-2-Azabicyclo[2.2.1]heptane-3-carbonyl)pyrrolidine-3-carbonyl)-1H-pyrrolo[2,3-c]pyridin-1-yl)-5-fluoro-N,N-diisopropylbenzamide], in that order: greater than 40 µM, 0.105 µM, 0.097 µM and 43 µL/min/mg.
Regarding `CC(C)N(C(=O)c1cc(F)ccc1-n1cc(C(=O)[C@@H]2CCN(C(=O)[C@H]3N[C@@H]4CC[C@H]3C4)C2)c2ccncc21)C(C)C` [Example 3, 2-(3-((R)-1-((1R,3S,4S)-2-Azabicyclo[2.2.1]heptane-3-carbonyl)pyrrolidine-3-carbonyl)-1H-pyrrolo[2,3-c]pyridin-1-yl)-5-fluoro-N,N-diisopropylbenzamide], the IC50 on hERG amounted to 38.8 µM; with MOLM-13 cells (Homo sapiens, MOLM-13, 168 h) it was 0.098 µM; in the data set with MV4;11 cells (Homo sapiens, MV4-11, 168 h), 0.099 µM. This molecule also yielded a microsomal CLint at 1 µM in data set [1] (human, microsomes) of 41 µL/min/mg.
For `CC(C)N(C(=O)c1cc(F)ccc1-n1cc(C(=O)[C@@H]2CCN(C[C@H]3CC[C@H](NS(C)(=O)=O)CC3)C2)c2ccncc21)C(C)C` [Example 4, 5-Fluoro-N,N-diisopropyl-2-(3-((R)-1-(((1r,4R)-4-(methylsulfonamido)-cyclohexyl)methyl)pyrrolidine-3-carbonyl)-1H-pyrrolo[2,3-c]pyridin-1-yl)benzamide], in that order: 6.3 µM, 0.156 µM, 0.132 µM and 171 µL/min/mg.
Regarding `CC(C)N(C(=O)c1cc(F)ccc1-n1cc(C(=O)C2CN(C(=O)[C@H]3N[C@@H]4CC[C@H]3C4)C2)c2ccncc21)C(C)C` [Example 5, 2-(3-(1-((1R,3S,4S)-2-Azabicyclo[2.2.1]heptane-3-carbonyl)azetidine-3-carbonyl)-1H-pyrrolo[2,3-c]pyridin-1-yl)-5-fluoro-N,N-diisopropylbenzamide], the IC50 on hERG is greater than 40 µM; with MOLM-13 cells (Homo sapiens, MOLM-13, 168 h), 0.074 µM; in the data set on MV4;11 cells (Homo sapiens, MV4-11, 168 h), 0.085 µM. This molecule also yielded a microsomal CLint at 1 µM in data set [1] (human, microsomes) of 35 µL/min/mg.
Taken in the same sequence, the figures for `CC(C)N(C(=O)c1cc(F)ccc1-n1cc(C(=O)C2CN(C(=O)[C@H]3N[C@H]4C[C@@H]3[C@@H](F)C4)C2)c2ccncc21)C(C)C` [Example 7, 5-Fluoro-2-(3-(1-((1S,3S,4S,5S)-5-fluoro-2-azabicyclo[2.2.1]heptane-3-carbonyl)azetidine-3-carbonyl)-1H-pyrrolo[2,3-c]pyridin-1-yl)-N,N-diisopropylbenzamide] were greater than 40 µM, 0.063 µM, 0.072 µM and 148 µL/min/mg.
For `CCN(C(=O)c1cc(F)ccc1-n1cc(C(=O)C2CN(C(=O)[C@H]3N[C@@H]4CC[C@H]3C4)C2)c2ccncc21)C(C)C` [Example 8, 2-(3-(1-((1R,3S,4S)-2-Azabicyclo[2.2.1]heptane-3-carbonyl)azetidine-3-carbonyl)-1H-pyrrolo[2,3-c]pyridin-1-yl)-N-ethyl-5-fluoro-N-isopropylbenzamide], in that order: greater than 40 µM, 0.142 µM, 0.1 µM and 21 µL/min/mg.
For `CC(C)c1ncccc1-c1cc(F)ccc1-n1cc(C(=O)C2CN(C(=O)[C@H]3N[C@@H]4CC[C@H]3C4)C2)c2ccncc21` [Example 10, (1-((1R,3S,4S)-2-Azabicyclo[2.2.1]heptane-3-carbonyl)azetidin-3-yl)(1-(4-fluoro-2-(2-isopropylpyridin-3-yl)phenyl)-1H-pyrrolo[2,3-c]pyridin-3-yl)methanone], in that order: greater than 40 µM, 0.023 µM, 0.024 µM and 182 µL/min/mg.
In the case of `CC(C)c1cnccc1-c1cc(F)ccc1-n1cc(C(=O)C2CN(C(=O)[C@H]3N[C@@H]4CC[C@H]3C4)C2)c2ccncc21.O=CO` [Example 11, (1-((1R,3S,4S)-2-Azabicyclo[2.2.1]heptane-3-carbonyl)azetidin-3-yl)(1-(4-fluoro-2-(3-isopropylpyridin-4-yl)phenyl)-1H-pyrrolo[2,3-c]pyridin-3-yl)methanone 1·formic acid], the IC50 against hERG is greater than 40 µM; with MOLM-13 cells (Homo sapiens, MOLM-13, 168 h), 0.05 µM; in the data set on MV4;11 cells (Homo sapiens, MV4-11, 168 h), 0.031 µM. Besides, the microsomal CLint at 1 µM in data set [1] (human, microsomes) was greater than 294 µL/min/mg.
Taken in the same sequence, the figures for `CC(C)(F)c1ncccc1-c1cc(F)ccc1-n1cc(C(=O)C2CN(C(=O)[C@H]3N[C@@H]4CC[C@H]3C4)C2)c2ccncc21` [Example 13, (1-((1R,3S,4S)-2-Azabicyclo[2.2.1]heptane-3-carbonyl)azetidin-3-yl)(1-(4-fluoro-2-(2-(2-fluoropropan-2-yl)pyridin-3-yl)phenyl)-1H-pyrrolo[2,3-c]pyridin-3-yl)methanone] were 35.8 µM, 0.051 µM, 0.034 µM and 119 µL/min/mg.
For `CC(C)N(C(=O)c1cc(F)ccc1-n1cc(C(=O)C2CN(C(=O)[C@H]3N[C@@H]4CC[C@H]3C4)C2)c2ccnc(F)c21)C(C)C` [Example 15, 2-(3-(1-((1R,3S,4S)-2-Azabicyclo[2.2.1]heptane-3-carbonyl)azetidine-3-carbonyl)-7-fluoro-1H-pyrrolo[2,3-c]pyridin-1-yl)-5-fluoro-N,N-diisopropylbenzamide], in that order: 24.9 µM, 0.098 µM, 0.053 µM and 132 µL/min/mg.
Taken in the same sequence, the figures for `CC(C)N(C(=O)c1cc(F)ccc1-n1cc(C(=O)C2CCN(C(=O)[C@H]3N[C@@H]4CC[C@H]3C4)CC2)c2ccncc21)C(C)C` [Example 16, 2-(3-(1-((1R,3S,4S)-2-Azabicyclo[2.2.1]heptane-3-carbonyl)piperidine-4-carbonyl)-1H-pyrrolo[2,3-c]pyridin-1-yl)-5-fluoro-N,N-diisopropylbenzamide] were greater than 40 µM, 0.035 µM, 0.029 µM and 27 µL/min/mg.
Turning to `CC(C)N(C(=O)c1cc(F)ccc1-n1cc(C(=O)C2CCN(C[C@H]3CC[C@H](NS(C)(=O)=O)CC3)CC2)c2ccncc21)C(C)C` [Example 17, 5-Fluoro-N,N-diisopropyl-2-(3-(1-(((1r,4r)-4-(methylsulfonamido)cyclohexyl)-methyl)piperidine-4-carbonyl)-1H-pyrrolo[2,3-c]pyridin-1-yl)benzamide], the half-inhibitory concentration (IC50) at hERG was found to be 9.1 µM; with MOLM-13 cells (Homo sapiens, MOLM-13, 168 h) it was 0.107 µM; with MV4;11 cells (Homo sapiens, MV4-11, 168 h) it was 0.32 µM. The molecule further gave a microsomal CLint at 1 µM in data set [1] (human, microsomes) of 52 µL/min/mg.

As usually defined, the IC50 is the concentration that inhibits the measured activity by half. A word on the microsomal CLint: it is a measure of how fast metabolising enzymes remove a compound, apart from limits set by blood flow. Low readings indicate greater metabolic stability, high ones faster metabolism.
